This is an account of results in article PMC10447463, “Data-mining unveils structure–property–activity correlation of viral infectivity enhancing self-assembling peptides” (Nature Communications, 2023).

The subject of one series is TZM-bl cells. The class given is cell-based. The settings on record: CellTiter-Glo, mean of n = 3 replicates; for viability 0.26 µM: peptide 0.26 µM; for viability 1.3 µM: peptide 1.3 µM; for viability 6.5 µM: peptide 6.5 µM. The procedure, abridged:
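Viability of TZM-bl cells (10,000 seeded) after 3 days with serially diluted peptides, measured by CellTiter-Glo luminescence. Values normalized to 100% metabolic activity; triplicates.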

The nature of series [1]: Conversion rate (CR) assay with fluorescamine. The format is physicochemical. The procedure, abridged: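 Peptide monomer conversion into nanostructures was quantified by separating free monomer via 3 kDa ultrafiltration, then labelling amines in filtrate and whole sample with fluorescamine in DMSO. CR was derived as 100 − 100 × (filtrate/original fluorescence), triplicate means with SD.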

The conditions of series [2]: ref sieste 2021 or Schilling2019, cited from earlier work. An excerpt:
Supplement 41467_2023_40663_MOESM7_ESM.zip/FigS17.csv, table | column: Conversion Rate / % ( from sieste 2021 or Schilling2019)

The mark [3] stands for this setting: previously reported peptides only.

Like-named read-outs stand apart in the source and are kept apart here.

On to CEIEIQINMWQ [TM143], for which, in the series with TZM-bl cells, the “viability 0.26 µM” value worked out at 119.4, the “viability 1.3 µM” value is listed as 116.4 and the “viability 6.5 µM” value was found to be 95.82. In addition, in series [1], the “Conversion Rate / %” value was found to be 59.9%. For the same substance, the “Conversion Rate / %” value in series [1] (fluorescamine assay) worked out at 59.9%. Further, in series [2], the “Conversion Rate / % ( from sieste 2021 or Schilling2019)” value is reported as 74%.
CKFKFQF [BL4]: in the series with TZM-bl cells, the “viability 0.26 µM” value came to 97.07, the “viability 1.3 µM” value is 99.36 and the “viability 6.5 µM” value amounted to 84.09. Moreover, the “Conversion Rate / %” value in series [1] is listed as 96.11%. Further, the “Conversion Rate / %” value in series [1] (fluorescamine assay) is given as 96.11%. Also, the “Conversion Rate / % ( from sieste 2021 or Schilling2019)” value in series [2] is reported as 95%.
In the case of CKFKFQFNMWQ [BL2], in the series on TZM-bl cells, the “viability 0.26 µM” value is reported as 106, the “viability 1.3 µM” value came to 95.99 and the “viability 6.5 µM” value turned out to be 75.41. Also, in series [1], the “Conversion Rate / %” value came out at 99.03%. In addition, in series [1] (fluorescamine assay), the “Conversion Rate / %” value was found to be 99.03%. The “Conversion Rate / % ( from sieste 2021 or Schilling2019)” value in series [2] is 96%.
As to CKIKQIINMWQ [MG5a / CK17], in the series with TZM-bl cells, the “viability 0.26 µM” value is on record as 108.4, the “viability 1.3 µM” value was 105.1 and the “viability 6.5 µM” value turned out to be 87.21. In series [2] (setting [3]), the “Conversion Rate / % ( from sieste 2021 or Schilling2019)” value was 50%.
Consider CSISIQI [TM141], for which, in the series with TZM-bl cells, the “viability 0.26 µM” value is on record as 98.15, the “viability 1.3 µM” value came to 96.88 and the “viability 6.5 µM” value is given as 81.12. In addition, the “Conversion Rate / %” value in series [1] (fluorescamine assay) is 76.63%. The “Conversion Rate / % ( from sieste 2021 or Schilling2019)” value in series [2] is given as 82%.
On to KAKAQANMWQ [JG3], for which, in the series with TZM-bl cells, the “viability 0.26 µM” value is reported as 106.8, the “viability 1.3 µM” value is reported as 106.3 and the “viability 6.5 µM” value is given as 103.1. Further, the “Conversion Rate / %” value in series [1] stood at 47.47%. Further, the “Conversion Rate / %” value in series [1] (fluorescamine assay) is listed as 47.47%. In addition, the “Conversion Rate / % ( from sieste 2021 or Schilling2019)” value in series [2] is 65%.
On to KFKFQF [JJA6], for which, in the series with TZM-bl cells, the “viability 0.26 µM” value came out at 101.2, the “viability 1.3 µM” value was 100.3 and the “viability 6.5 µM” value was 102.1. The “Conversion Rate / %” value in series [1] was determined as 51.79%. Also, in series [1] (fluorescamine assay), the “Conversion Rate / %” value came out at 51.79%. Besides, in series [2], the “Conversion Rate / % ( from sieste 2021 or Schilling2019)” value was 83%.
Turning to KFKFQFNMWQ [JG4], in the series on TZM-bl cells, the “viability 0.26 µM” value stood at 119.1, the “viability 1.3 µM” value was 111.9 and the “viability 6.5 µM” value is reported as 101.1. In addition, the “Conversion Rate / %” value in series [1] came out at 98.32%. The “Conversion Rate / %” value in series [1] (fluorescamine assay) worked out at 98.32%. In series [2] (literature value), the “Conversion Rate / % ( from sieste 2021 or Schilling2019)” value is 94%. For the same substance, the “Conversion Rate / % ( from sieste 2021 or Schilling2019)” value in series [2] is given as 94%.
With KIKIQINM [JGB2], in the series with TZM-bl cells, the “viability 0.26 µM” value was 119.1, the “viability 1.3 µM” value turned out to be 112 and the “viability 6.5 µM” value is 103.3. Also, the “Conversion Rate / % ( from sieste 2021 or Schilling2019)” value in series [2] was 64%.
With KIKQIINMWQ [JG2], in the series with TZM-bl cells, the “viability 0.26 µM” value came to 91.29, the “viability 1.3 µM” value is 92.88 and the “viability 6.5 µM” value came out at 83.88. The “Conversion Rate / %” value in series [1] is 94.17%. The “Conversion Rate / %” value in series [1] (fluorescamine assay) turned out to be 94.17%. Further, in series [2] (setting [3]), the “Conversion Rate / % ( from sieste 2021 or Schilling2019)” value is listed as 86%.
For MKFKFQF [DF5 / CK16], in the series on TZM-bl cells, the “viability 0.26 µM” value was determined as 101.4, the “viability 1.3 µM” value was determined as 111.3 and the “viability 6.5 µM” value was 99.71. Also, in series [1] (fluorescamine assay), the “Conversion Rate / %” value is 98.72%. Further, the “Conversion Rate / % ( from sieste 2021 or Schilling2019)” value in series [2] is given as 75%.
